Legend:
cells = details: Homo sapiens, YY-8103, 48 h
Description: Antiproliferative activity against human YY-8103 cells assessed as inhibition of cell growth measured after 48 hrs by MTT assay

SMMC-7721 = assay: cells; details: Homo sapiens, SMMC-7721, 48 h
Description: Antiproliferative activity against human SMMC-7721 cells assessed as inhibition of cell growth measured after 48 hrs by MTT assay

Focal adhesion kinase 1 = Focal adhesion kinase 1 (Homo sapiens, UniProt Q05397); assay: Inhibition of FAK (unknown origin) using Poly(Glu,Tyr) and ATP as substrate measured after 40 mins by Kinase-Glo Plus luminescence assay
Sequence of Focal adhesion kinase 1 (Q05397 whole entry): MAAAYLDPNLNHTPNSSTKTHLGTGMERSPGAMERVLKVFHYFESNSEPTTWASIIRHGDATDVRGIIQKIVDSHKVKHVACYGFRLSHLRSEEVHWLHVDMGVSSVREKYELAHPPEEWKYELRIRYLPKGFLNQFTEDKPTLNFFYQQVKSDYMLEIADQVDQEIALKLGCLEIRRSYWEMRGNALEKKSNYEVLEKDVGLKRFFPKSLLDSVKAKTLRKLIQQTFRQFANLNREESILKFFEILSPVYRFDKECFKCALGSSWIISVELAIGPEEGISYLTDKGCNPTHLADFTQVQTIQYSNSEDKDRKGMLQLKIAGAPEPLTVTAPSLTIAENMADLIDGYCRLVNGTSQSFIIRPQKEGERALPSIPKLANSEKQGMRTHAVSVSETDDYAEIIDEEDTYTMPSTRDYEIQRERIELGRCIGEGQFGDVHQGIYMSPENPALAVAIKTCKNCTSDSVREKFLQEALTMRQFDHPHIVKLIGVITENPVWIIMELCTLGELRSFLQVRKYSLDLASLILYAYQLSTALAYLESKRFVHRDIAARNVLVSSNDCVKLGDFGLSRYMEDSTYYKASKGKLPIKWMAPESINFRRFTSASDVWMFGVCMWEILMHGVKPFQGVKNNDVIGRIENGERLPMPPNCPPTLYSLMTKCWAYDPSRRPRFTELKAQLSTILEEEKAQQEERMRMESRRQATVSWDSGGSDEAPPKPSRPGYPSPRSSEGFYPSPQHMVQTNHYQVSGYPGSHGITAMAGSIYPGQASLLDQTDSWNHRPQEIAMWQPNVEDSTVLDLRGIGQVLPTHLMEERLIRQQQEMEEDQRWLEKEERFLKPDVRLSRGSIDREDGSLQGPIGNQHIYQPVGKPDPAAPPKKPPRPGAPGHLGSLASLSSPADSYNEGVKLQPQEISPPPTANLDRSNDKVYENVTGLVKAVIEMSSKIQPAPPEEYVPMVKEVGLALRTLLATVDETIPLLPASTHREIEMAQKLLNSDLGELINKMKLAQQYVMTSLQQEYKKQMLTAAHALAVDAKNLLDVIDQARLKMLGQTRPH

SMILES | IC50 (cells) [µM] | IC50 (SMMC-7721) [µM] | IC50 (Focal adhesion kinase 1) [µM]
CN(c1ncccc1CNc1nc(Nc2ccccc2)nc2[nH]cc(F)c12)S(C)(=O)=O | > 100 | > 100 | 0.032
COc1cc(N2CCOCC2)ccc1Nc1nc(NCc2cccnc2N(C)S(C)(=O)=O)c2c(F)c[nH]c2n1 | 15.4 | 15.3 | 0.023
CN(c1ncccc1CNc1nc(Nc2ccc3c(c2)CC(=O)N3)nc2[nH]ncc12)S(C)(=O)=O | – | – | 0.206
CN(c1ncccc1CNc1nc(Nc2ccc(N3CCOCC3)cc2)nc2[nH]cc(F)c12)S(C)(=O)=O | > 100 | > 100 | 0.026
CN(c1ncccc1CNc1nc(Nc2ccc(F)c(Cl)c2)nc2[nH]cc(F)c12)S(C)(=O)=O | 82.5 | > 100 | 0.041
COc1ccc(Nc2nc(NCc3cccnc3N(C)S(C)(=O)=O)c3c(F)c[nH]c3n2)cc1OC | 18.2 | 54.8 | 0.015
COc1cc(Nc2nc(NCc3cccnc3N(C)S(C)(=O)=O)c3c(F)c[nH]c3n2)cc(OC)c1OC | > 100 | > 100 | 0.017
CN(c1ncccc1CNc1nc(Nc2ccc3c(c2)CC(=O)N3)nc2[nH]cc(F)c12)S(C)(=O)=O | 24.1 | 73.2 | 0.022
Cc1c[nH]c2nc(Nc3ccc4c(c3)CC(=O)N4)nc(NCc3cccnc3N(C)S(C)(=O)=O)c12 | 12.4 | 18.7 | 0.064
CN(c1ncccc1CNc1nc(Nc2ccc3c(c2)CC(=O)N3)nc2[nH]cc(C#N)c12)S(C)(=O)=O | > 100 | > 100 | 0.325
CNC(=O)c1ccccc1Nc1nc(Nc2cccc(CNC(C)=O)c2)nc2[nH]cc(F)c12 | 1.06 | 18.7 | 0.014
CN1CCN(c2ccc(Nc3nc(NCc4cccnc4N(C)S(C)(=O)=O)c4c(F)c[nH]c4n3)cc2)CC1 | 2.39 | 13.9 | 0.013
CN(c1ncccc1CNc1nc(Nc2ccc3c(c2)CC(=O)N3)nc2[nH]ccc12)S(C)(=O)=O | 13.6 | 52.8 | 0.055

From ChEMBL document CHEMBL4831494, “Synthesis and evaluation of FAK inhibitors with a 5-fluoro-7H-pyrrolo[2,3-d]pyrimidine scaffold as anti-hepatocellular carcinoma agents” (Eur J Med Chem, 2021)
